{"source": "patent US10815238B2", "about": "“Antimicrobial compounds and methods of making and using the same” (BIOVERSYS AG, priority 2013, dated 2020)", "key": {"[1]": {"tested_on": "Eschericia coli (E. coli) strain ATCC25922", "assay": "Standard microdilution assay, MIC against E. coli ATCC25922", "type": "cell-based", "details": "Escherichia coli; E. coli strain ATCC25922, standard microdilution assay; cutoff 16 micrograms/mL; read-out: MIC E. Coli", "procedure,_shortened": "(§1)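 MIC determined by broth microdilution following CLSI protocols, with reference strains run in parallel for quality control. Activity scored +/− at a cutoff of 16 micrograms/mL.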"}, "[2]": {"tested_on": "Staphylococcus aureus (S. aureus) 11540 strain", "assay": "Standard microdilution assay, MIC against S. aureus 11540", "type": "cell-based", "details": "S. aureus 11540 strain, standard microdilution assay, cutoff 16 micrograms/mL, read-out: MIC S. aureus", "procedure,_shortened": "as §1"}}}
{"molecule": "C[C@H](N)CCCc1cc(Cl)c(F)c(-c2cc3cn(-c4ccc([C@@H]5CCC[C@@H](CCN)N5)cc4)c(=O)nc3[nH]2)c1", "note": "[Compound 421]", "values": [{"measurement": "MIC", "setting": "[1]", "value": "< 16", "unit": "µg/mL"}, {"measurement": "MIC", "setting": "[2]", "value": "< 16", "unit": "µg/mL"}]}
{"molecule": "C[C@H](N)CCCc1cc(Cl)c(F)c(-c2cc3cn(-c4ccc([C@H](C)NCC[C@@H](CNC(=O)CN)NC(=N)N)cc4)c(=O)nc3[nH]2)c1", "note": "[Compound 422]", "values": [{"measurement": "MIC", "setting": "[1]", "value": "< 16", "unit": "µg/mL"}, {"measurement": "MIC", "setting": "[2]", "value": "< 16", "unit": "µg/mL"}]}
{"molecule": "C[C@H](N)CCCc1cc(OC(F)(F)F)c(F)c(-c2cc3cn(-c4ccc([C@H](C)NCC[C@@H](CNC(=O)CN)NC(=N)N)cc4)c(=O)nc3[nH]2)c1", "note": "[Compound 423]", "values": [{"measurement": "MIC", "setting": "[1]", "value": "< 16", "unit": "µg/mL"}, {"measurement": "MIC", "setting": "[2]", "value": "< 16", "unit": "µg/mL"}]}
{"molecule": "C[C@H](N)CCCc1cc(Cl)c(F)c(-c2cc3cn(-c4ccc([C@H](C)NCC[C@H](N)CNC(=O)CN)cc4)c(=O)nc3[nH]2)c1", "note": "[Compound 424]", "values": [{"measurement": "MIC", "setting": "[1]", "value": "< 16", "unit": "µg/mL"}, {"measurement": "MIC", "setting": "[2]", "value": "< 16", "unit": "µg/mL"}]}
{"molecule": "C[C@H](N)CCCc1cc(Cl)c(F)c(-c2cc3cn(-c4ccc([C@@H](N)CCN)cc4)c(=O)nc3[nH]2)c1", "note": "[Compound 425]", "values": [{"measurement": "MIC", "setting": "[1]", "value": "< 16", "unit": "µg/mL"}, {"measurement": "MIC", "setting": "[2]", "value": "< 16", "unit": "µg/mL"}]}
{"molecule": "C[C@H](N)CCCc1cc(OC(F)(F)F)c(F)c(-c2cc3cn(-c4ccc([C@@H](N)CCN)cc4)c(=O)nc3[nH]2)c1", "note": "[Compound 426]", "values": [{"measurement": "MIC", "setting": "[1]", "value": "< 16", "unit": "µg/mL"}, {"measurement": "MIC", "setting": "[2]", "value": "< 16", "unit": "µg/mL"}]}
{"molecule": "C[C@H](N)CCCc1cc(Cl)c(F)c(-c2cc3cn(-c4ccc([C@@H](N)CCNC(=N)N)cc4)c(=O)nc3[nH]2)c1", "note": "[Compound 427]", "values": [{"measurement": "MIC", "setting": "[1]", "value": "< 16", "unit": "µg/mL"}, {"measurement": "MIC", "setting": "[2]", "value": "< 16", "unit": "µg/mL"}]}
{"molecule": "C[C@H](N)CCCc1cc(OC(F)(F)F)c(F)c(-c2cc3cn(-c4ccc([C@@H](N)CCNC(=N)N)cc4)c(=O)nc3[nH]2)c1", "note": "[Compound 428]", "values": [{"measurement": "MIC", "setting": "[1]", "value": "< 16", "unit": "µg/mL"}, {"measurement": "MIC", "setting": "[2]", "value": "< 16", "unit": "µg/mL"}]}
{"molecule": "C[C@H](N)CCCc1cc(OC(F)(F)F)c(F)c(-c2cc3cn(-c4ccc([C@@H]5CCC[C@@H](CCN)N5)cc4)c(=O)nc3[nH]2)c1", "note": "[Compound 429]", "values": [{"measurement": "MIC", "setting": "[1]", "value": "< 16", "unit": "µg/mL"}, {"measurement": "MIC", "setting": "[2]", "value": "< 16", "unit": "µg/mL"}]}
{"molecule": "C[C@H](N)CCCc1cc(OC(F)(F)F)c(F)c(-c2cc3cn(-c4ccc([C@@H]5CCC[C@@H](CCNC(=N)N)N5)cc4)c(=O)nc3[nH]2)c1", "note": "[Compound 430]", "values": [{"measurement": "MIC", "setting": "[1]", "value": "< 16", "unit": "µg/mL"}, {"measurement": "MIC", "setting": "[2]", "value": "< 16", "unit": "µg/mL"}]}
{"molecule": "C[C@H](N)CCCc1cc(Cl)c(F)c(-c2cc3cn(-c4ccc([C@H](C)N5CC[C@@H](NC(=N)N)C5)cc4)c(=O)nc3[nH]2)c1", "note": "[Compound 431]", "values": [{"measurement": "MIC", "setting": "[1]", "value": "< 16", "unit": "µg/mL"}, {"measurement": "MIC", "setting": "[2]", "value": "< 16", "unit": "µg/mL"}]}
{"molecule": "CC[C@H](NCCCNC(=N)N)c1ccc(-n2cc3cc(-c4cc(CCC[C@@H](N)CO)cc(Cl)c4F)[nH]c3nc2=O)cc1", "note": "[Compound 432]", "values": [{"measurement": "MIC", "setting": "[1]", "value": "< 16", "unit": "µg/mL"}, {"measurement": "MIC", "setting": "[2]", "value": "< 16", "unit": "µg/mL"}]}
{"molecule": "C[C@H](N)CCCc1cc(Cl)c(F)c(-c2cc3cn(-c4ccc([C@H]5CCC[C@H](CCNC(=N)N)N5)cc4)c(=O)nc3[nH]2)c1", "note": "[Compound 433]", "values": [{"measurement": "MIC", "setting": "[1]", "value": "< 16", "unit": "µg/mL"}, {"measurement": "MIC", "setting": "[2]", "value": "< 16", "unit": "µg/mL"}]}
{"molecule": "C[C@H](N)CCCc1cc(Cl)c(F)c(-c2cc3cn(-c4ccc(C5(CCNC(=N)N)CNC5)cc4)c(=O)nc3[nH]2)c1", "note": "[Compound 434]", "values": [{"measurement": "MIC", "setting": "[1]", "value": "< 16", "unit": "µg/mL"}, {"measurement": "MIC", "setting": "[2]", "value": "< 16", "unit": "µg/mL"}]}
{"molecule": "C[C@H](N)CCCc1cc(OC(F)(F)F)c(F)c(-c2cc3cn(-c4ccc(C5(CCNC(=N)N)CNC5)cc4)c(=O)nc3[nH]2)c1", "note": "[Compound 435]", "values": [{"measurement": "MIC", "setting": "[1]", "value": "< 16", "unit": "µg/mL"}, {"measurement": "MIC", "setting": "[2]", "value": "< 16", "unit": "µg/mL"}]}
{"molecule": "C[C@H](N)CCCc1cc(Cl)c(F)c(-c2cc3cn(-c4ccc(CN[C@@H](C)C[C@@H](CO)NC(=N)N)cc4)c(=O)nc3[nH]2)c1", "note": "[Compound 436]", "values": [{"measurement": "MIC", "setting": "[1]", "value": "< 16", "unit": "µg/mL"}, {"measurement": "MIC", "setting": "[2]", "value": "< 16", "unit": "µg/mL"}]}
{"molecule": "C[C@H](N)CCCc1cc(Cl)c(F)c(-c2cc3cn(-c4ccc(CN[C@@H](C)C[C@H](CO)NC(=N)N)cc4)c(=O)nc3[nH]2)c1", "note": "[Compound 437]", "values": [{"measurement": "MIC", "setting": "[1]", "value": "< 16", "unit": "µg/mL"}, {"measurement": "MIC", "setting": "[2]", "value": "< 16", "unit": "µg/mL"}]}
{"molecule": "C[C@H](N)CCCc1cc(Cl)c(F)c(-c2cc3cn(-c4ccc([C@@H]5CCC[C@H](CCNC(=N)N)N5)cc4)c(=O)nc3[nH]2)c1", "note": "[Compound 438]", "values": [{"measurement": "MIC", "setting": "[1]", "value": "< 16", "unit": "µg/mL"}, {"measurement": "MIC", "setting": "[2]", "value": "< 16", "unit": "µg/mL"}]}
{"molecule": "C[C@H](N)CCCc1cc(OC(F)(F)F)c(F)c(-c2cc3cn(-c4ccc([C@@H]5CCC[C@H](CCNC(=N)N)N5)cc4)c(=O)nc3[nH]2)c1", "note": "[Compound 439]", "values": [{"measurement": "MIC", "setting": "[1]", "value": "< 16", "unit": "µg/mL"}, {"measurement": "MIC", "setting": "[2]", "value": "< 16", "unit": "µg/mL"}]}
{"molecule": "C[C@H](N)CCCc1cc(Cl)c(F)c(-c2cc3cn(-c4ccc([C@H](N)CCN)cc4)c(=O)nc3[nH]2)c1", "note": "[Compound 440]", "values": [{"measurement": "MIC", "setting": "[1]", "value": "< 16", "unit": "µg/mL"}, {"measurement": "MIC", "setting": "[2]", "value": "< 16", "unit": "µg/mL"}]}
